Experimental data taken from US20060264460A1 (Wyeth, priority 2005, published 2006).
pIC50: −log10 of the molar value.

biological target: T1, human Cot/Tpl2 kinase (Homo sapiens, UniProt P41279); assay: Tpl2/Cot kinase assay: GST-MEK1 phosphorylation detected by ELISA (DELFIA Eu); type: biochemical; details: 0.4 nM Tpl2, 35 nM GST-MEK1, 50 uM ATP, 1 h at 30° C.
T1 construct: human Cot/Tpl2 kinase construct encoding residues 30-398; 6His (N); made in house; host or cells: Sf9 insect cells, baculovirus system (BD Biosciences)
T1 sequence (P41279 30-398): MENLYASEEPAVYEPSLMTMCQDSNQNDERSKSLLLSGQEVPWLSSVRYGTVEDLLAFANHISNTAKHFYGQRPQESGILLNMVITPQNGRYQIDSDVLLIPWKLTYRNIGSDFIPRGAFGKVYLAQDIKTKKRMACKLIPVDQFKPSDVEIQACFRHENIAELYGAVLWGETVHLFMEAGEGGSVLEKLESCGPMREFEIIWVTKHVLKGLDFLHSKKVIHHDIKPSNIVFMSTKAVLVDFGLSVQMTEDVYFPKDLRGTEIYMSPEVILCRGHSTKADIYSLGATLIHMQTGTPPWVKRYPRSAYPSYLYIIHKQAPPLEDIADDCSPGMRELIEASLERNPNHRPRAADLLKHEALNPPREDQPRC
In short: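 His-tagged human Tpl2 from Sf9 cells, Ni-affinity and size-exclusion purified (monomer). 0.4 nM Tpl2 with 35 nM GST-MEK1, 50 uM ATP, MOPS pH 7.2, 1% DMSO, 1 h at 30° C; EDTA stop. MEK1 Ser217/221 phosphorylation detected by anti-phospho-MEK1 and Eu-labelled secondary ELISA; IC50 fitted.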

Structure (SMILES)	pIC50
CNc1nc(SC)ncc1CNc1cc(Cl)c2ncc(C#N)c(Nc3ccc(F)c(Cl)c3)c2c1 [Example 280, 8-chloro-4-[(3-chloro-4-fluorophenyl)amino]-6-({[4-(methylamino)-2-(methylthio)pyrimidin-5-yl]methyl]amino)quinoline-3-carbonitrile]	< 4.40
N#Cc1cnc2c(Cl)cc(NCCc3cnc[nH]3)cc2c1Nc1ccc(F)c(Cl)c1 [Example 283, 8-chloro-4-[(3-chloro-4-fluorophenyl)amino]-6-{[2-(1H-imidazol-5-yl)ethyl]amino}quinoline-3-carbonitrile]	6.89
CS(=O)(=O)c1cc(NCc2cnc[nH]2)cc2c(Nc3ccc(F)c(Cl)c3)c(C#N)cnc12 [Example 286, 4-[(3-chloro-4-fluorophenyl)amino]-6-[(1H-imidazol-5-ylmethyl)amino]-8-(methylsulfonyl)quinoline-3-carbonitrile]	6.72
CSc1cc(NCc2cnc[nH]2)cc2c(Nc3ccc(F)c(Cl)c3)c(C#N)cnc12 [Example 287, 4-[(3-chloro-4-fluorophenyl)amino]-6-[(1H-imidazol-5-ylmethyl)amino]-8-(methylthio)quinoline-3-carbonitrile]	6.47
COc1ccc(Cn2cc(CNc3cc(Br)c4ncc(C#N)c(Nc5ccc(F)c(Cl)c5)c4c3)nn2)cc1 [Example 289]	6.69
N#Cc1cnc2c(Br)cc(NCc3nc(-c4ccccc4)n[nH]3)cc2c1Nc1ccc(F)c(Cl)c1 [Example 290, 8-Bromo-4-(3-chloro-4-fluoro-phenylamino)-6-[(5-phenyl-2H-[1,2,4]triazol-3-ylmethyl)-amino]-quinoline-3-carbonitrile]	< 4.40
N#Cc1cnc2c(Br)cc(NCc3nn[nH]c3CO)cc2c1Nc1ccc(F)c(Cl)c1 [Example 294, 8-Bromo-4-(3-chloro-4-fluoro-phenylamino)-6-[(5-hydroxymethyl-1H-[1,2,3]triazol-4-ylmethyl)-amino]-quinoline-3-carbonitrile]	6.30
N#Cc1cnc2c(Br)cc(NCc3ccoc3)cc2c1Nc1ccc(F)c(Cl)c1 [Example 299, 8-Bromo-4-(3-chloro-4-fluoro-phenylamino)-6-[(furan-3-ylmethyl)-amino]-quinoline-3-carbonitrile]	6.32
N#Cc1cnc2c(Br)cc(NCc3cn(CCN4C(=O)c5ccccc5C4=O)nn3)cc2c1Nc1ccc(F)c(Cl)c1 [Example 303, 8-Bromo-4-(3-chloro-4-fluoro-phenylamino)-6-({1-[2-(1,3-dioxo-1,3-dihydro-isoindol-2-yl)-ethyl]-1H-[1,2,3]triazol-4-ylmethyl}-amino)-quinoline-3-carbonitrile]	< 4.40
N#Cc1cnc2c(CCC(=O)CO)cc(N)cc2c1Nc1ccc(F)c(Cl)c1 [Example 309, 6-amino-4-[(3-chloro-4-fluorophenyl)amino]-8-(4-hydroxy-3-oxobutyl)quinoline-3-carbonitrile]	5.15
N#Cc1cnc2c(CCC(=O)CO)cc(NCc3cnc[nH]3)cc2c1Nc1ccc(F)c(Cl)c1 [Example 310, 4-[(3-chloro-4-fluorophenyl)amino]-8-(4-hydroxy-3-oxybutyl)-6-[(1H-imidazol-5-ylmethyl)amino]quinoline-3-carbonitrile]	6.82
CCOC(=O)/C=C/c1cc(NCc2cnc[nH]2)cc2c(Nc3ccc(F)c(Cl)c3)c(C#N)cnc12 [Example 312, Ethyl(2E)-3-{4-[(3-chloro-4-fluorophenyl)amino]-3-cyano-6-[(1H-imidazol-5-ylmethyl)amino]quinolin-8-yl}acrylate]	5.01
N#Cc1cnc2c(CC(O)CO)cc(NCc3cnc[nH]3)cc2c1Nc1ccc(F)c(Cl)c1 (stereo not shown) [Example 314, 4-[(3-chloro-4-fluorophenyl)amino]-8-(2,3-dihydroxypropyl)-6-[(1H-imidazol-5-ylmethyl)amino]quinoline-3-carbonitrile]	6.04

Now those with a higher pIC50, led by results:

pIC50	Structure (SMILES)
7.38	CSc1ncc(CNc2cc(Cl)c3ncc(C#N)c(Nc4ccc(F)c(Cl)c4)c3c2)cn1 [Example 281, 8-Chloro-4-[(3-chloro-4-fluorophenyl)amino]-6-({[2-(methylthio)pyrimidin-5-yl]methyl]amino)quinoline-3-carbonitrile]
7.64	CS(=O)(=O)c1nccc(CNc2cc(Cl)c3ncc(C#N)c(Nc4ccc(F)c(Cl)c4)c3c2)n1 [Example 282, 8-Chloro-4-[(3-chloro-4-fluorophenyl)amino]-6-({[2-(methylsulfonyl)pyrimidin-4-yl]methyl}amino)quinoline-3-carbonitrile]
7.70	C[S+]([O-])c1cc(NCc2cnc[nH]2)cc2c(Nc3ccc(F)c(Cl)c3)c(C#N)cnc12 (stereo not shown) [Example 284, 4-[(3-chloro-4-fluorophenyl)amino]-6-[(1H-imidazol-5-ylmethyl)amino]-8-(methylsulfinyl)quinoline-3-carbonitrile]
8.46	N#Cc1cnc2c(Br)cc(NCc3cn(-c4ccc(C(=O)O)cc4)nn3)cc2c1Nc1ccc(F)c(Cl)c1 [Example 292, 4-(4-{[8-Bromo-4-(3-chloro-4-fluoro-phenylamino)-3-cyano-quinolin-6-ylamino]-methyl}-[1,2,3]triazol-1-yl)-benzoic acid]
7.89	CCOC(OCC)c1[nH]nnc1CNc1cc(Br)c2ncc(C#N)c(Nc3ccc(F)c(Cl)c3)c2c1 [Example 293, 8-Bromo-4-(3-chloro-4-fluoro-phenylamino)-6-[(5-diethoxymethyl-1H-[1,2,3]triazol-4-ylmethyl)-amino]-quinoline-3-carbonitrile]
7.17	N#Cc1cnc2c(Br)cc(NCc3nn[nH]c3CNCCO)cc2c1Nc1ccc(F)c(Cl)c1 [Example 295, 8-Bromo-4-(3-chloro-4-fluoro-phenylamino)-6-({5-[(2-hydroxy-ethylamino)-methyl]-1H-[1,2,3]triazol-4-ylmethyl}-amino)-quinoline-3-carbonitrile]
7.82	N#Cc1cnc2c(Br)cc(NCc3cn(CCN4CCCCC4)nn3)cc2c1Nc1ccc(F)c(Cl)c1 [Example 296, 8-Bromo-4-(3-chloro-4-fluoro-phenylamino)-6-{[1-(2-piperidin-1-yl-ethyl)-1H-[1,2,3]triazol-4-ylmethyl]-amino}-quinoline-3-carbonitrile]
7.54	N#Cc1cnc2c(Br)cc(NCc3cn(CCN4CCOCC4)nn3)cc2c1Nc1ccc(F)c(Cl)c1 [Example 297, 8-Bromo-4-(3-chloro-4-fluoro-phenylamino)-6-{[1-(2-morpholin-4-yl-ethyl)-1H-[1,2,3]triazol-4-ylmethyl]-amino}-quinoline-3-carbonitrile]
7.42	N#Cc1cnc2c(Br)cc(NCc3cn(CC(=O)N4CCOCC4)nn3)cc2c1Nc1ccc(F)c(Cl)c1 [Example 298, 8-Bromo-4-(3-chloro-4-fluoro-phenylamino)-6-{[1-(2-morpholin-4-yl-2-oxo-ethyl)-1H-[1,2,3]triazol-4-ylmethyl]-amino}-quinoline-3-carbonitrile]
7.68	N#Cc1cnc2c(Br)cc(NCc3csnn3)cc2c1Nc1ccc(F)c(Cl)c1 [Example 302, 8-Bromo-4-(3-chloro-4-fluoro-phenylamino)-6-[([1,2,3]thiadiazol-4-ylmethyl)-amino]-quinoline-3-carbonitrile]
7.77	N#Cc1cnc2c(Br)cc(NCc3cn(CCN)nn3)cc2c1Nc1ccc(F)c(Cl)c1 [Example 304, 6-{[1-(2-Amino-ethyl)-1H-[1,2,3]triazol-4-ylmethyl]-amino}-8-bromo-4-(3-chloro-4-fluoro-phenylamino)-quinoline-3-carbonitrile]
7.60	CN1CCCC1CCn1cc(CNc2cc(Br)c3ncc(C#N)c(Nc4ccc(F)c(Cl)c4)c3c2)nn1 (stereo not shown) [Example 305, 8-Bromo-4-(3-chloro-4-fluoro-phenylamino)-6-({1-[2-(1-methyl-pyrrolidin-2-yl)-ethyl]-1H-[1,2,3]triazol-4-ylmethyl}-amino)-quinoline-3-carbonitrile]
7.21	N#Cc1cnc2c(Br)cc(NCc3cn(CCN4CCCCCC4)nn3)cc2c1Nc1ccc(F)c(Cl)c1 [Example 307, 6-{[1-(2-Azepan-1-yl-ethyl)-1H-[1,2,3]triazol-4-ylmethyl]-amino}-8-bromo-4-(3-chloro-4-fluoro-phenylamino)-quinoline-3-carbonitrile]
7.55	N#Cc1cnc2c(Br)cc(NCc3cn(CCN4CCCC4)nn3)cc2c1Nc1ccc(F)c(Cl)c1 [Example 308, 8-Bromo-4-(3-chloro-4-fluoro-phenylamino)-6-{[1-(2-pyrrolidin-1-yl-ethyl)-1H-[1,2,3]triazol-4-ylmethyl]-amino}-quinoline-3-carbonitrile]
7.92	N#Cc1cnc2c(Br)cc(NCc3[nH]nnc3-c3ccccc3)cc2c1Nc1ccc(F)c(Cl)c1 [Example 311, 8-bromo-4-[(3-chloro-4-fluorophenyl)amino]-6-{[(4-phenyl-1H-1,2,3-triazol-5-yl)methyl]amino}quinoline-3-carbonitrile]
8.00	N#Cc1cnc2c(Br)cc(NCc3cn(C4CCNCC4)nn3)cc2c1Nc1ccc(F)c(Cl)c1 [Example 316, 8-bromo-4-[(3-chloro-4-fluorophenyl)amino]-6-{[(1-piperidin-4-yl-1H-1,2,3-triazol-4-yl)methyl]amino}quinoline-3-carbonitrile]
7.72	CN1CCC(n2cc(CNc3cc(Br)c4ncc(C#N)c(Nc5ccc(F)c(Cl)c5)c4c3)nn2)CC1 [Example 317, 8-bromo-4-[(3-chloro-4-fluorophenyl)amino]-6-({[1-(1-methylpiperidin-4-yl)-1H-1,2,3-triazol-4-yl]methyl}amino)quinoline-3-carbonitrile]
8.24	CC(O)Cc1nn[nH]c1CNc1cc(Br)c2ncc(C#N)c(Nc3ccc(F)c(Cl)c3)c2c1 (stereo not shown) [Example 318, 8-bromo-4-(3-chloro-4-fluorophenylamino)-6-((5-(2-hydroxypropyl)-3H-1,2,3-triazol-4-yl)methylamino)quinoline-3-carbonitrile]
